Measurements from patent publication US4400199A, “Thiolcarbamate compounds and their use as herbicides” (priority 1981, dated 1983).
Converted amounts (≈) assume the structure as drawn.

Key:
[1] = test system: barnyard grass (Echinochloa crus-galli); test: Experiment 1: herbicidal effects against barnyard grass (pot test, emulsifiable concentrate); type: in vivo; conditions: 25 days
[2] = Experiment 4: subacute toxicity to fish; type: in vivo, 2-year-old carps; conditions: carp, water; 0.2 ppm; 3 weeks; read-out: Survival rate after 3 weeks
Description: (§1) With respect to the compounds according to the present invention and the comparative compounds listed in Table 4, there were conducted tests on subacute toxicity to 2-year-old carps having an average weight of 20 g.
(§2) Ten 2-year-old carps were released in each of 25-liter water tanks equipped with an air-blowing apparatus and acclimatized to the surroundings while feeding for 10 days. Water in each of the water tanks was continuously replaced with fresh water so that the residence time of water in the water tanks is 6 hours. Each test compound was added to a predetermined quantity of supply water to prepare a 0.2 ppm aqueous solution of each compound, and each of the aqueous solutions was continuously added to the water in the tank. After three weeks, the hematocrit values of all the survival carps were determined. The hematocrit value used herein is intended to mean a volume percentage of erythrocyte contained in the blood.

carps = test: Experiment 4: subacute toxicity to fish; type: in vivo, 2-year-old carps; conditions: 0.2 ppm; 3 weeks
Description: as §1, §2

[3] = Experiment 3: acute toxicity to fish; type: in vivo, Black-carp fry; conditions: carp, water
Description: With respect to the compounds according to the present invention and the comparative compounds (Compound 10, Compound 12 and Compound 13), there were conducted tests on acute toxicity to carps.
In 25-liter water tanks made of glass was charged 20 liters of water. 12 Black-carp fry were released to each of the water tanks and bred while feeding for 7 days. Then, the whole quantity of water in each of the tanks was replaced with fresh water, and feeding to the carps was stopped. After three days, a prescribed amount of 1 weight % solution of a test compound in acetone was added to water in the water tank.
The number of survival fish in each tank was counted after 24 hours, 48 hours and 96 hours, successively.
The TLm (median tolerance limit=lethal concentration 50%) was determined by the Doudorff's method (Sewage & Ind. Wastes 23 (1951) 1380-1397).

[4] = test system: Hotarui (Scirpus juncoides); test: Experiment 2: herbicidal effects against Hotarui (pot test, granules); type: in vivo; conditions: 25 days
broad-leaf weeds = test: Experiment 2: herbicidal effects against broad-leaf weeds (pot test, granules); type: in vivo; conditions: 25 days
[5] = test system: Mizugayatsuri (Cyperus serotinus); test: Experiment 2: herbicidal effects against Mizugayatsuri (pot test, granules); type: in vivo; conditions: 25 days
barnyard grass = test: Experiment 2: herbicidal effects against barnyard grass (pot test, granules); type: in vivo, Echinochloa crus-galli; conditions: 2.5 leaf-stage, 25 days
[6] = 1.5 leaf-stage of barnyard grass, 150 g/10a.
[7] = 1.5 leaf-stage of barnyard grass, 300 g/10a.
[8] = 1.5 leaf-stage of barnyard grass, 600 g/10a.
[9] = 3 leaf-stage of barnyard grass, 150 g/10a.
[10] = 3 leaf-stage of barnyard grass, 300 g/10a.
[11] = 3 leaf-stage of barnyard grass, 600 g/10a.

SMILES	herbicidal activity (barnyard grass) [1, 6]	herbicidal activity (barnyard grass) [1, 7]	herbicidal activity (barnyard grass) [1, 8]	herbicidal activity (barnyard grass) [1, 9]	herbicidal activity (barnyard grass) [1, 10]	herbicidal activity (barnyard grass) [1, 11]	Herbicidal activity Hotarui (Scirpus juncoides) ([4]; 150 g/10a.)	Herbicidal activity Hotarui (Scirpus juncoides) ([4]; 300 g/10a.)	Herbicidal activity Hotarui (Scirpus juncoides) ([4]; 600 g/10a.)	Herbicidal activity broad-leaf weeds (broad-leaf weeds; 150 g/10a.)	Herbicidal activity broad-leaf weeds (broad-leaf weeds; 300 g/10a.)	Herbicidal activity broad-leaf weeds (broad-leaf weeds; 600 g/10a.)	Herbicidal activity Mizugayatsuri (Cyperus serotinus) ([5]; 150 g/10a.)	Herbicidal activity Mizugayatsuri (Cyperus serotinus) ([5]; 300 g/10a.)	Herbicidal activity Mizugayatsuri (Cyperus serotinus) ([5]; 600 g/10a.)	herbicidal activity (barnyard grass) (barnyard grass; 150 g/10a.)	herbicidal activity (barnyard grass) (barnyard grass; 300 g/10a.)	herbicidal activity (barnyard grass) (barnyard grass; 600 g/10a.)	also measured
CC1CCC(C)CN(C(=O)SCCCCCCCl)C1 (stereo not drawn) [Compound 8, S-(6-chlorohexyl)-3,6-dimethyl-hexahydro-1H-azepine-1-carbothioate]	5 (more than 90%)	5 (more than 90%)	5 (more than 90%)	5 (more than 90%)	5 (more than 90%)	5 (more than 90%)													survival at 504 h [2]: 100%; Average Hematocrit Value of survival fish (carps): 35%
CC1CCC(C)CN(C(=O)SCCCCCl)C1 (stereo not drawn) [Compound 7, S-(4-chlorobutyl)-3,6-dimethyl-hexahydro-1H-azepine-1-carbothioate]	5 (more than 90%)	5 (more than 90%)	5 (more than 90%)	5 (more than 90%)	5 (more than 90%)	5 (more than 90%)	3 (50 to 69%)	5 (more than 90%)	5 (more than 90%)	4 (70 to 89%)	5 (more than 90%)	5 (more than 90%)	3 (50 to 69%)	4 (70 to 89%)	5 (more than 90%)	5 (more than 90%)	5 (more than 90%)	5 (more than 90%)	LC50 at 48 h ([3]; 48 hrs, read-out: Median lethal concentration TLm (48hrs)): 2.6 µg/mL (≈ 9.36 µM); LC50 at 96 h ([3]; 96 hrs, read-out: Median lethal concentration TLm (96hrs)): 2.6 µg/mL (≈ 9.36 µM); survival at 504 h [2]: 100%; Average Hematocrit Value of survival fish (carps): 34%
CC1CCCCN1C(=O)SCCCCCCCCCl (stereo not drawn) [Compound 4, S-(8-chlorooctyl)-(2-methyl)-piperidine-1-carbothioate]	5 (more than 90%)	5 (more than 90%)	5 (more than 90%)	4 (70 to 89%)	5 (more than 90%)	5 (more than 90%)	2 (30 to 49%)	4 (70 to 89%)	5 (more than 90%)	3 (50 to 69%)	4 (70 to 89%)	5 (more than 90%)	2 (30 to 49%)	3 (50 to 69%)	5 (more than 90%)	4 (70 to 89%)	5 (more than 90%)	5 (more than 90%)	
CCCCSC(=O)N1CC(C)CCC(C)C1 (stereo not drawn) [Compound 17, reference compound]					3 (50 to 69%)														
CC1CCC(C)CN(C(=O)SCCCCCCCl)C1 (stereo not drawn) [Compound, S-(6-chlorohexyl)-3,6-dimethyl-hexahydro-1H-azepine-1-carbothioate]							3 (50 to 69%)	5 (more than 90%)		3 (50 to 69%)	5 (more than 90%)		2 (30 to 49%)	4 (70 to 89%)		5 (more than 90%)	5 (more than 90%)		
CC1CCCCN1C(=O)SCCCCCCCl (stereo not drawn) [Compound 3, S-(6-chlorohexyl)-(2-methyl)-piperidine-1-carbothioate]	5 (more than 90%)	5 (more than 90%)	5 (more than 90%)	4 (70 to 89%)	5 (more than 90%)	5 (more than 90%)	3 (50 to 69%)	4 (70 to 89%)	5 (more than 90%)	4 (70 to 89%)	5 (more than 90%)	5 (more than 90%)	4 (70 to 89%)	4 (70 to 89%)	5 (more than 90%)	5 (more than 90%)	5 (more than 90%)	5 (more than 90%)	
CC1CCCCN1C(=O)SCCCCCCCCCCCl (stereo not drawn) [Compound 5, S-(10-chlorodecyl)-(2-methyl)-piperidine-1-carbothioate]		5 (more than 90%)	5 (more than 90%)		4 (70 to 89%)	5 (more than 90%)		4 (70 to 89%)	5 (more than 90%)		4 (70 to 89%)	5 (more than 90%)		3 (50 to 69%)	5 (more than 90%)		5 (more than 90%)	5 (more than 90%)	
CCCCCCCCCCSC(=O)N1CC(C)CCC(C)C1 (stereo not drawn) [Compound 19, reference compound]					1 (10 to 29%)														
CCCSC(=O)N1CC(C)CCC(C)C1 (stereo not drawn) [Compound 16, reference compound]					3 (50 to 69%)														
CCSC(=O)N1CC(C)CCC(C)C1 (stereo not drawn) [Compound 15, reference compound]					3 (50 to 69%)														
CC1CCCCN1C(=O)SCCCCCCl (stereo not drawn) [Compound 2, S-(5-chloropentyl)-(2-methyl)-piperidine-1-carbothioate]	5 (more than 90%)	5 (more than 90%)	5 (more than 90%)	5 (more than 90%)	5 (more than 90%)	5 (more than 90%)	3 (50 to 69%)	4 (70 to 89%)	5 (more than 90%)	5 (more than 90%)	5 (more than 90%)	5 (more than 90%)	3 (50 to 69%)	4 (70 to 89%)	5 (more than 90%)	5 (more than 90%)	5 (more than 90%)	5 (more than 90%)	survival at 504 h [2]: 100%; Average Hematocrit Value of survival fish (carps): 30%
CSC(=O)N1CC(C)CCC(C)C1 (stereo not drawn) [Compound 14, reference compound]					3 (50 to 69%)														
